Experimental data taken from PMC7761903, “Aldehyde Dehydrogenases and Prostate Cancer: Shedding Light on Isoform Distribution to Reveal Druggable Target” (Biomedicines, 2020).
Entries after “also recorded” stand apart in the source; their conditions may differ.

Assays:
Format in all cases: cell-based, human
P4E6 cell line = assay: Alamar Blue cell viability, P4E6; conditions: for EC50: 72 h exposure, Alamar Blue
From the text: (§1) Five different prostate cell lines, including normal cell line PNT2-C2 (Merck), benign prostatic hyperplasia cell line BPH1 (gift from Simon W. Hayward, Evanston, IL, USA), and cancer cell lines including PC-3 (derived from prostate cancer bone metastasis) (ATCC), LNCaP (derived from prostate cancer lymph node metastasis) (ATCC), and P4E6 (derived from localized prostate cancer) (derived in York and available from European Collection of Authenticated Cell Cultures ECACC), as well as two primary malignant cell lines, H796/19 and H798/19 (both Gleason 7 grade cancers) (obtained in York with ethical permission, REC ref 07/H1304/121) were used in the study. Culturing of commercially available cell lines and processing and culturing of primary cells were carried out as previously described. Primary cells were typically used at a passage <5 since they have finite growth and the intention is to maintain them as close to the original tumor as possible.
(§2) AlamarBlue quantitatively measures cell viability since actively metabolizing cells can reduce its active ingredient resazurin to a fluorescent molecule (resorufin) which can be subsequently analyzed on a plate reader. Cells were plated in 96 well plates at a density of 5000 cells/well and left to adhere overnight in 200 μL media. The following day cells were treated with 9 different concentrations of the test drugs in triplicate, ranging from 10^−5 M to 10^−13 M. After 72 h exposure 20 μL of AlamarBlue reagent (diluted 1:10 in the corresponding media for each cell line) was added to each well and incubated at 37 °C for 2 h. Fluorescence intensity was determined using a microplate reader (Polarstar Optima, BMG Labtech) at excitation/emission values 73 of 544/590 nm. EC50 values were calculated using the software GraphPad Prism Version 6 (San Diego, CA, USA).

PC3 cell line [1] = assay: Alamar Blue cell viability, PC3; conditions: for EC50: 72 h exposure, Alamar Blue
From the text: as §1, §2

LNCaP cell line = assay: Alamar Blue cell viability, LNCaP; conditions: 72 h exposure
From the text: as §1, §2

[2] = tested on: PNT2-C2 normal prostate epithelial cell line; assay: Alamar Blue cell viability, PNT2-C2; conditions: 72 h exposure
From the text: as §1, §2

[3] = tested on: BPH1 benign prostatic hyperplasia cell line; assay: Alamar Blue cell viability, BPH1
From the text: as §1, §2

PC3 cell line [4] = assay: Colony-forming assay, PC3; conditions: 72 h exposure at EC50, EC50×2, EC50×5
Method: PNT2-C2, BPH1 and PC3 cell lines were plated in 12-well plates with a density of 4 × 10^4 cells/well and left to adhere overnight in 1.00 mL media. The following day cells were treated with 3 different concentrations of the test drugs, based on the EC50 values in cell viability (EC50, EC50×2, EC50×5). After 72 h of exposure, cells were counted and plated into 12 well plates in triplicate with a density of 100 cells/well. At day 8, cells were stained with crystal violet (1% (w/v) crystal violet, 10% (v/v) ethanol in PBS). Colonies consisting of >32 cells were counted (representative of 5 population doublings).

[5] = tested on: ALDH1A3 gene expression in primary prostate epithelial cell cultures; assay: qPCR ALDH1A3 gene expression after atRA treatment; conditions: atRA 100 nM, 72 hours; 1xBPH, 1xBPH-PIN, 2x PCa primary cultures; no statistical test
Method: (§3) RNA extraction was carried out using the RNeasy Mini Kit (Qiagen, Hilden, Germany). The concentration and quality of the eluted RNA were determined using a NanodropTM2000 (Thermo Fisher Scientific, Waltham, MA, USA) spectrophotometer and measuring the 260/280 ratio. Total RNA of 50–2000 ng was reverse transcribed into single-stranded cDNA using the High Capacity cDNA Reverse Transcription Kit (Thermo Fisher Scientific, Waltham, MA, USA). Once the reaction finished, samples were purified using the QIAquick PCR Purification Kit (Qiagen). The concentration and quality of the cDNA was measured by using the NanodropTM2000 spectrophotometer. qPCR was carried out in 25 μL total PCR reaction using the TaqMan Universal PCR Master Mix (Applied Biosystems, Thermo Fisher Scientific, Waltham, MA, USA). The PCR reaction consisted of 12.5 μL of 2× master mix, 1.25 μL of 20× TaqMan Gene Expression Assay Mix (Supplementary Table S1), and 11.25 μL cDNA diluted in dH2O. A 96-well MicroAmp Optical plate (Applied Biosystems) was used and all reactions were run in triplicates. Primers used were obtained from TaqMan Gene Expression Assays (Thermo Fisher Scientific, Waltham, MA, USA). […] The gene expression level relative to internal control RPLP0 was calculated using the formula 2^−∆CT and the fold change in gene expression was worked out using the 2^−∆∆CT method. […]

[6] = tested on: ALDH1A1 gene expression in primary prostate epithelial cell cultures; assay: qPCR ALDH1A1 gene expression after atRA treatment; conditions: atRA 100 nM, 72 hours; 1xBPH, 1xBPH-PIN, 2x PCa primary cultures; no statistical test
Method: as §3

Compound | EC50 (PC3 cell line [1]) [nM] | EC50 (LNCaP cell line) [nM] | EC50 (P4E6 cell line) [nM] | EC50 [2] [nM] | EC50 ([3]; 72 h exposure) [nM] | further results
Fc1ccc(-c2ccc3nc(-c4ccccc4)cn3c2)cc1 [Compound 3b, 6-(4-fluorophenyl)-2-phenylimidazo [1,2-a]pyridine] | – | – | – | – | – | EC50 (P4E6 cell line; Homo sapiens): 4.04 nM; antiproliferative activity against P4E6 (P4E6 cell line; result in words): antiproliferative activity in the nanomolar range; also recorded: nanomolar efficacy; EC50 (PC3 cell line [1]; Homo sapiens, PC-3): 70.9 nM; antiproliferative activity against PC3 (PC3 cell line [1]; result in words): antiproliferative activity in the nanomolar range; also recorded: nanomolar efficacy; EC50 (LNCaP cell line; Homo sapiens, LNCaP): 240 nM; EC50 ([2]; Homo sapiens, Epithelial cell): 217 nM; EC50 ([3]; Homo sapiens, BPH-1, 72 h exposure): 41.5 nM; colony-forming efficiency PC3 (PC3 cell line [4]): inhibitory efficacy against PC3 colony-forming efficiency
Clc1ccc(-c2ccc3nc(-c4ccccc4)cn3c2)cc1 [Compound 3c] | 322 | 323 | 33.4 | 325 | 416 | –
CC1=C(/C=C/C(C)=C/C=C/C(C)=C/C(=O)O)C(C)(C)CCC1 [atRA] | – | – | – | – | – | gene expression for ALDH1A3 [5]: increase; gene expression for ALDH1A1 [6]: no apparent effect

Second part, led by results:

EC50 (PC3 cell line [1]) [nM] | EC50 (LNCaP cell line) [nM] | Compound | EC50 (P4E6 cell line) [nM] | EC50 [2] [nM] | EC50 ([3]; 72 h exposure) [nM] | further results
239 | 315 | c1ccc(-c2ccc3nc(-c4ccccc4)cn3c2)cc1 [Compound 3a] | 60.7 | 423 | 113 | –
– | 7180 | N#Cc1cccc(-c2ccc3nc(-c4ccccc4)cn3c2)c1 [Compound 3d] | 440 | 1720 | 351 | selectivity of PC3 colony forming inhibition versus PNT2-C2 or BPH-1 (PC3 cell line [4]): selectively inhibited PC3 colony forming more strongly than PNT2-C2 or BPH-1; also recorded: selective inhibition of PC3 colony formation
